The term CC50 denotes the concentration that lowers cell viability or growth by half. Low values mean greater toxicity to the cells, high ones lower toxicity to the cells. A word on the EC50: it is the concentration at which the effect is half-maximal.

Series [1] is described as follows: In vitro cytotoxicity assay (MTT cell viability) in HepG2 cells. Type of series: cell-based, human. As to conditions: human. Put shortly:
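CC50 values reflect loss of HepG2 viability after a 7-day exposure at 37 °C, 5% CO2. After 3-4 h with MTT, solubilized formazan was quantified at 492 nm relative to vehicle wells.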

For series [2], the system named is HBV replication in HepAD38 cells. The series is described as follows: Anti-HBV replication assay in HepAD38 cells (QPCR of extracellular HBV DNA). Type of series: cell-based, HBV (genotype D, serotype ayw). As to conditions: Hepatitis B virus, 168 h, 7 days incubation, extracellular HBV DNA by QPCR, read-out: Anti-HBV EC50. Put shortly: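 Steps: seed HepAD38 overnight without tetracycline; refresh medium and add 1 log10 serial dilutions ([…]); incubate 7 days at 37 °C; quantify supernatant HBV DNA by QPCR; derive EC50 from a 4-parameter dose-response fit.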

As for `Cc1cc(NC(=O)c2c(C)c(C(=O)C(=O)NC3CCOCC3)n(C)c2C)ccc1F` [Example 247, N-(4-fluoro-3-methylphenyl)-1,2,4-trimethyl-5-(2-oxo-2-((tetrahydro-2H-pyran-4-yl)amino)acetyl)-1H-pyrrole-3-carboxamide], the CC50 at 7 days in series [1] was in the range of 5000 to 30000 nM. Besides, the EC50 in series [2] was less than 50 nM.
On the same counts, the results for `Cc1noc([C@H](NC(=O)C(=O)c2c(Cl)c(C(=O)Nc3ccc(F)c(C)c3)c3n2CCC3)C(C)C)n1` [Example 544, (R)-6-chloro-N-(4-fluoro-3-methylphenyl)-5-(2-((2-methyl-1-(3-methyl-1,2,4-oxadiazol-5-yl)propyl)amino)-2-oxoacetyl)-2,3-dihydro-1H-pyrrolizine-7-carboxamide] are more than 30000 nM and less than 50 nM.
The like results for `Cc1c(C(=O)Nc2cncc(Cl)c2)c(C)n(C)c1C(=O)C(=O)N[C@H]1CC[C@@H](O)CC1` [Example 726, N-(5-chloropyridin-3-yl)-5-(2-(((1s,4s)-4-hydroxycyclohexyl)amino)-2-oxoacetyl)-1,2,4-trimethyl-1H-pyrrole-3-carboxamide] were, in that order, more than 30000 nM and less than 50 nM.
The compound `Cc1noc([C@@H](C)NC(=O)C(=O)c2c(C)c(C(=O)Nc3ccc(F)c(Cl)c3)c3n2CCCC3)n1` [Example 447, (R)-N-(3-chloro-4-fluorophenyl)-2-methyl-3-(2-((1-(3-methyl-1,2,4-oxadiazol-5-yl)ethyl)amino)-2-oxoacetyl)-5,6,7,8-tetrahydroindolizine-1-carboxamide] yielded a CC50 at 7 days in series [1] of 5000 to 30000 nM. For the same compound, the EC50 in series [2] is less than 50 nM.
On the same counts, the results for `Cc1c(C(=O)Nc2ncc(C(F)(F)F)s2)c2n(c1C(=O)C(=O)NC1(CO)CCC1)CCCC2` [Example 749, 3-(2-((1-(hydroxymethyl)cyclobutyl)amino)-2-oxoacetyl)-2-methyl-N-(5-(trifluoromethyl)thiazol-2-yl)-5,6,7,8-tetrahydroindolizine-1-carboxamide] are more than 30000 nM and 50 to 499 nM.
The like results for `Cc1cc(NC(=O)c2cc(C(=O)C(=O)NC3(C(F)(F)F)CCC3)n3c2CCCC3)ccc1F` [Example 403] were, in that order, more than 30000 nM and 50 to 499 nM.
On the same counts, the results for `COCC1(CNC(=O)C(=O)c2c(C)c(C(=O)Nc3ccc(F)c(C)c3)c(C)n2C)CCCCC1` [Example 358, N-(4-fluoro-3-methylphenyl)-5-(2-(((1-(methoxymethyl)cyclohexyl)methyl)amino)-2-oxoacetyl)-1,2,4-trimethyl-1H-pyrrole-3-carboxamide] are more than 30000 nM and less than 50 nM.
Compound `Cc1cc(NC(=O)c2c(C)c(C(=O)C(=O)NC34CCC(O)(CC3)CC4)n(C)c2C)ccc1F` [Example 263, N-(4-fluoro-3-methylphenyl)-5-(2-((4-hydroxybicyclo[2.2.2]octan-1-yl)amino)-2-oxoacetyl)-1,2,4-trimethyl-1H-pyrrole-3-carboxamide] yielded a CC50 at 7 days in series [1] of more than 30000 nM. The EC50 in series [2] is less than 50 nM.
`Cc1cc(NC(=O)c2cc(C(=O)C(=O)N[C@H](C)C(F)(F)F)n3c2CCCC3)ccc1F` [Example 408, (R)-N-(4-fluoro-3-methylphenyl)-3-(2-oxo-2-((1,1,1-trifluoropropan-2-yl)amino)acetyl)-5,6,7,8-tetrahydroindolizine-1-carboxamide] had a CC50 at 7 days in series [1] of more than 30000 nM. The EC50 in series [2] lay within 50 to 499 nM.
Take `Cc1cc(NC(=O)c2c(Cl)c(C(=O)C(=O)NC(C)(C)CO)n3c2CCCC3)cnc1F` [Example 508, 2-chloro-N-(6-fluoro-5-methylpyridin-3-yl)-3-(2-((1-hydroxy-2-methylpropan-2-yl)amino)-2-oxoacetyl)-5,6,7,8-tettrahydroindolizine-1-carboxamide]: the CC50 at 7 days in series [1] is more than 30000 nM. Also, in series [2], the EC50 was in the range of 500 to 1000 nM.
With `Cc1cc(NC(=O)c2c(C)c(C(=O)C(=O)Nc3cccnc3)n3c2CCCC3)ccc1F` [Example 739, N-(4-fluoro-3-methylphenyl)-2-methyl-3-(2-oxo-2-(pyridin-3-ylamino)acetyl)-5,6,7,8-tetrahydroindolizine-1-carboxamide], the CC50 at 7 days in series [1] was more than 30000 nM. The EC50 in series [2] lay within 50 to 499 nM.
The compound `Cc1c(C(=O)Nc2ccc(F)c(Cl)c2)c(C)n(C)c1C(=O)C(=O)Nc1ccccn1` [Example 309, N-(3-chloro-4-fluorophenyl)-1,2,4-trimethyl-5-(2-oxo-2-(pyridin-2-ylamino)acetyl)-1H-pyrrole-3-carboxamide] gave a CC50 at 7 days in series [1] of more than 30000 nM. The EC50 in series [2] is 50 to 499 nM.
On the same counts, the results for `Cc1cc(NC(=O)c2c(C)c(C(=O)NC(C)(C)CN3CCOCC3)n(C)c2C)ccc1F` [Example 349, N4-(4-fluoro-3-methylphenyl)-1,3,5-trimethyl-N2-(2-methyl-1-morpholinopropan-2-yl)-1H-pyrrole-2,4-dicarboxamide] are more than 30000 nM and more than 1000 nM.
Take `Cc1cc(NC(=O)c2c(C)c(C(=O)C(=O)N[C@@H](C)C(C)(C)C)n(C)c2C)ccc1F` [Example 88, (S)-5-(2-((3,3-dimethylbutan-2-yl)amino)-2-oxoacetyl)-N-(4-fluoro-3-methylphenyl)-1,2,4-trimethyl-1H-pyrrole-3-carboxamide]: in series [1], the CC50 at 7 days fell in the range of 5000 to 30000 nM. Further, the EC50 in series [2] was less than 50 nM.
On the same counts, the results for `CC(=O)N1CCC[C@@H](NC(=O)C(=O)c2c(C)c(C(=O)Nc3ccc(F)c(C)c3)c(C)n2C)C1` [Example 639, (R)-5-(2-((1-acetylpiperidin-3-yl)amino)-2-oxoacetyl)-N-(4-fluoro-3-methylphenyl)-1,2,4-trimethyl-1H-pyrrole-3-carboxamide] are more than 30000 nM and less than 50 nM.
The like results for `Cc1c(C(=O)Nc2ccc(F)nc2)c(C)n(C)c1C(=O)C(=O)N[C@H]1CC[C@](O)(C(F)(F)F)CC1` [Example 239] were, in that order, more than 30000 nM and 500 to 1000 nM.
The like results for `Cc1cc(NC(=O)c2c(C)c(C(=O)C(=O)NC3CCNC(=O)C3)n(C)c2C)ccc1F` (centres unmarked) [Example 286, N-(4-fluoro-3-methylphenyl)-1,2,4-trimethyl-5-(2-oxo-2-((2-oxopiperidin-4-yl)amino)acetyl)-1H-pyrrole-3-carboxamide] were, in that order, more than 30000 nM and less than 50 nM.
On to `Cc1c(C(=O)Nc2ccc(F)c(Cl)c2)c2n(c1C(=O)C(=O)N[C@H]1CCC[C@H]1O)CCCC2` [Example 451, N-(3-chloro-4-fluorophenyl)-3-(2-(((1S,2R)-2-hydroxycyclopentyl)amino)-2-oxoacetyl)-2-methyl-5,6,7,8-tetrahydroindolizine-1-carboxamide], for which the CC50 at 7 days in series [1] was in the range of 5000 to 30000 nM. For the same compound, in series [2], the EC50 lay within 50 to 499 nM.
In the case of `Cc1cc(NC(=O)c2c(C)c(C(=O)C(=O)NC3CC4(CC(O)C4)C3)n(C)c2C)ccc1F` (centres unmarked) [Example 598, N-(4-fluoro-3-methylphenyl)-5-(2-((6-hydroxyspiro[3.3]heptan-2-yl)amino)-2-oxoacetyl)-1,2,4-trimethyl-1H-pyrrole-3-carboxamide], the 50% cytotoxic concentration (CC50) at 7 days in series [1] is more than 30000 nM. For the same compound, the EC50 in series [2] is less than 50 nM.
On the same counts, the results for `Cc1cc(NC(=O)c2c(C)c(C(=O)C(=O)N[C@]3(C)CC[C@H](O)CC3)n3c2CCCC3)ccc1F` [Example 737, N-(4-fluoro-3-methylphenyl)-3-(2-(((1s,4s)-4-hydroxy-1-methylcyclohexyl)amino)-2-oxoacetyl)-2-methyl-5,6,7,8-tetrahydroindolizine-1-carboxamide] are more than 30000 nM and less than 50 nM.
The like results for `Cc1cc(NC(=O)c2c(C)c(C(=O)C(=O)N[C@H]3C4CC5CC3C[C@](O)(C5)C4)n(C)c2C)cnc1F` [Example 122, N-(6-fluoro-5-methylpyridin-3-yl)-5-(2-(((1R,2s,3S,5s,7s)-5-hydroxyadamantan-2-yl)amino)-2-oxoacetyl)-1,2,4-trimethyl-1H-pyrrole-3-carboxamide] were, in that order, more than 30000 nM and less than 50 nM.
The like results for `Cc1noc([C@@H](C)NC(=O)C(=O)c2c(Cl)c(C(=O)Nc3ccc(F)c(C)c3)c3n2CCCC3)n1` [Example 495, (R)-2-chloro-N-(4-fluoro-3-methylphenyl)-3-(2-((1-(3-methyl-1,2,4-oxadiazol-5-yl)ethyl)amino)-2-oxoacetyl)-5,6,7,8-tetrahydroindoliizine-1-carboxamide] were, in that order, 5000 to 30000 nM and less than 50 nM.
The compound `Cc1cc(NC(=O)c2c(C)c(C(=O)C(=O)NC3(C)CCN(C(=O)c4cn[nH]c4)CC3)n(C)c2C)ccc1F` [Example 709, N-(4-fluoro-3-methylphenyl)-1,2,4-trimethyl-5-(2-((4-methyl-1-(1H-pyrazole-4-carbonyl)piperidin-4-yl)amino)-2-oxoacetyl)-1H-pyrrole-3-carboxamide] yielded a CC50 at 7 days in series [1] of more than 30000 nM. The EC50 in series [2] was less than 50 nM.
On the same counts, the results for `Cc1cc(NC(=O)c2c(C)c(C(=O)C(=O)N[C@H]3CCc4nc(N)sc4C3)n(C)c2C)ccc1F` [Example 75, (S)-5-(2-((2-amino-4,5,6,7-tetrahydrobenzo[d]thiazol-6-yl)amino)-2-oxoacetyl)-N-(4-fluoro-3-methylphenyl)-1,2,4-trimethyl-1H-pyrrole-3-carboxamide] are 5000 to 30000 nM and less than 50 nM.
The like results for `Cc1cc(NC(=O)c2c(C)c(C(=O)C(=O)N[C@H](C)CO)n(C)c2C)ccc1F` [Example 219, (R)-N-(4-fluoro-3-methylphenyl)-5-(2-((1-hydroxypropan-2-yl)amino)-2-oxoacetyl)-1,2,4-trimethyl-1H-pyrrole-3-carboxamide] were, in that order, more than 30000 nM and less than 50 nM.
